Experiments:
Assay type in all cases: in vivo
[1] = test system: dayflower (Virginia (VA) dayflower, Commelina virginica); test: Test E greenhouse herbicide test, pre- and postemergence
Outline: (§1)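 Visual rating vs untreated controls, 0 = no effect, 100 = complete control, after 14–21 d greenhouse. Pre: seeded silt loam treated with surfactant-containing solvent formulation. Post: 1–4-leaf plants (2–18 cm) in peat/vermiculite medium.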

[2] = test system: beggarticks (hairy beggarticks, Bidens pilosa); test: as above
Outline: as §1

[3] = test system: lambsquarters (Chenopodium album); test: as above; conditions: Preemergence
Outline: as §1

[4] = test system: wild poinsettia (Euphorbia heterophylla); test: as above
Outline: as §1

[5] = test system: Italian ryegrass (Lolium multiflorum); test: as above
Outline: as §1

[6] = test system: foxtail, green (green foxtail, Setaria viridis); test: as above; conditions: Preemergence
Outline: as §1

[7] = test system: nutsedge, yellow (yellow nutsedge, Cyperus esculentus); test: as above; conditions: Preemergence
Outline: as §1

corn (Zea mays) = test: as above
Outline: as §1

[8] = test system: velvetleaf (Abutilon theophrasti); test: as above; conditions: Preemergence
Outline: as §1

[9] = test system: sandbur (southem sandbur, Cenchrus echinatus); test: as above
Outline: as §1

kochia (Kochia scoparia) = test: as above
Outline: as §1

[10] = test system: waterhemp (common waterhemp, Amaranthus rudis); test: as above
Outline: as §1

[11] = test system: waterhemp_RES1 (ALS & Triazine resistant common waterhemp, Amaranthus rudis); test: Test E greenhouse herbicide test, postemergence
Procedure: (§2) At the same time, plants from these crop and weed species and also waterhemp_RES1, (ALS & Triazine resistant common waterhemp, Amaranthus rudis), and waterhemp_RES2, (ALS & HPPD resistant common waterhemp, Amaranthus rudis) were planted in pots containing Redi-Earth® planting medium (Scotts Company, 14111 Scottslawn Road, Marysville, Ohio 43041) comprising spaghnum peat moss, vermiculite, wetting agent and starter nutrients were treated with postemergence applications of test chemicals formulated in the same manner. Plants ranged in height from 2 to 18 cm for postemergence treatments (1- to 4-leaf stage). Treated plants and controls were maintained in a greenhouse for 14 to 21 d, after which time all species were compared to controls and visually evaluated. Plant response ratings, summarized in Table E, are based on a scale of 0 to 100 where 0 is no effect and 100 is complete control. A dash (-) response means no test result.

[12] = test system: waterhemp_RES2 (ALS & HPPD resistant common waterhemp, Amaranthus rudis); test: Test E greenhouse herbicide test, postemergence
Procedure: as §2

[13] = 62 g ai/ha, Preemergence, scale 0 to 100 (0 no effect, 100 complete control)
[14] = 125 g ai/ha, Preemergence, scale 0 to 100 (0 no effect, 100 complete control)
[15] = Preemergence, 16 g ai/ha, scale 0 to 100, 0 no effect, 100 complete control
[16] = Preemergence, 31 g ai/ha, scale 0 to 100, 0 no effect, 100 complete control
[17] = 62 g ai/ha, scale 0 to 100 (0 no effect, 100 complete control)
[18] = 125 g ai/ha, scale 0 to 100 (0 no effect, 100 complete control)
[19] = 16 g ai/ha, scale 0 to 100, 0 no effect, 100 complete control
[20] = 31 g ai/ha, scale 0 to 100, 0 no effect, 100 complete control
[21] = 16 g ai/ha, visual, scale 0 no effect to 100 complete control
[22] = 31 g ai/ha, visual, scale 0 no effect to 100 complete control
[23] = 62 g ai/ha, Postemergence, scale 0 to 100 (0 no effect, 100 complete control)
[24] = 125 g ai/ha, Postemergence, scale 0 to 100 (0 no effect, 100 complete control)
[25] = Postemergence, 16 g ai/ha, visual, scale 0 no effect to 100 complete control
[26] = Postemergence, 31 g ai/ha, visual, scale 0 no effect to 100 complete control

## COC(=O)Oc1c(C)nn(C)c(=O)c1-c1c(C)sc2ccc(C)cc12 [Compound 80]
[1]; [13]
  Plant response rating, Dayflower, VA: 0
[1]; [14]
  Plant response rating, Dayflower, VA: 10
[1]; [15]
  Plant response rating, Dayflower, VA: 0
[1]; [16]
  Plant response rating, Dayflower, VA: 0
[2]; [13]
  Plant response rating, Beggarticks: 100
[2]; [14]
  Plant response rating, Beggarticks: 100
[2]; [15]
  Plant response rating, Beggarticks: 100
[2]; [16]
  Plant response rating, Beggarticks: 85
[3]; [17]
  Plant response rating, Lambsquarters: 98
[3]; [18]
  Plant response rating, Lambsquarters: 100
[3]; [19]
  Plant response rating, Lambsquarters: 65
[3]; [20]
  Plant response rating, Lambsquarters: 100
[4]; [13]
  Plant response rating, Poinsettia, Wild: 0
[4]; [14]
  Plant response rating, Poinsettia, Wild: 40
[4]; [15]
  Plant response rating, Poinsettia, Wild: 0
[4]; [16]
  Plant response rating, Poinsettia, Wild: 0
[5]; [13]
  Plant response rating, Ryegrass, Italian: 98
[5]; [14]
  Plant response rating, Ryegrass, Italian: 98
[5]; [15]
  Plant response rating, Ryegrass, Italian: 50
[5]; [16]
  Plant response rating, Ryegrass, Italian: 70
[6]; [17]
  Plant response rating, Foxtail, Green: 50
[6]; [18]
  Plant response rating, Foxtail, Green: 65
[6]; [19]
  Plant response rating, Foxtail, Green: 0
[6]; [20]
  Plant response rating, Foxtail, Green: 15
[7]; [17]
  Plant response rating, Nutsedge, Yellow: 40
[7]; [18]
  Plant response rating, Nutsedge, Yellow: 35
[7]; [19]
  Plant response rating, Nutsedge, Yellow: 5
[7]; [20]
  Plant response rating, Nutsedge, Yellow: 10
Corn (Zea mays); [13]
  Plant response rating, Corn: 0
Corn (Zea mays); [14]
  Plant response rating, Corn: 0
Corn (Zea mays); [15]
  Plant response rating, Corn: 0
Corn (Zea mays); [16]
  Plant response rating, Corn: 0
[8]; [17]
  Plant response rating, Velvetleaf: 70
[8]; [18]
  Plant response rating, Velvetleaf: 90
[8]; [19]
  Plant response rating, Velvetleaf: 0
[8]; [20]
  Plant response rating, Velvetleaf: 20
[9]; [13]
  Plant response rating, Sandbur: 70
[9]; [14]
  Plant response rating, Sandbur: 75
[9]; [15]
  Plant response rating, Sandbur: 0
[9]; [16]
  Plant response rating, Sandbur: 65
Kochia (Kochia scoparia); [13]
  Plant response rating, Kochia: 100
Kochia (Kochia scoparia); [14]
  Plant response rating, Kochia: 100
Kochia (Kochia scoparia); [15]
  Plant response rating, Kochia: 25
Kochia (Kochia scoparia); [16]
  Plant response rating, Kochia: 90
[10]; [13]
  Plant response rating, Waterhemp: 100
[10]; [14]
  Plant response rating, Waterhemp: 100
[10]; [15]
  Plant response rating, Waterhemp: 0
[10]; [16]
  Plant response rating, Waterhemp: 70

## CC(=O)Oc1c(C)nn(C)c(=O)c1-c1c(C)cc(C)c2ccccc12 [Compound 99]
[11]; [21]
  Plant response rating, Waterhemp_RES1: 50
[11]; [22]
  Plant response rating, Waterhemp_RES1: 50
[11]; [18]
  Plant response rating, Waterhemp_RES1: 75
[12]; [21]
  Plant response rating, Waterhemp_RES2: 50
[12]; [22]
  Plant response rating, Waterhemp_RES2: 50
[12]; [18]
  Plant response rating, Waterhemp_RES2: 60
[1]; [23]
  Plant response rating, Dayflower, VA: 70
[1]; [24]
  Plant response rating, Dayflower, VA: 75
[1]; [25]
  Plant response rating, Dayflower, VA: 40
[1]; [26]
  Plant response rating, Dayflower, VA: 60
[2]; [23]
  Plant response rating, Beggarticks: 100
[2]; [24]
  Plant response rating, Beggarticks: 95
[2]; [25]
  Plant response rating, Beggarticks: 70
[2]; [26]
  Plant response rating, Beggarticks: 80
[4]; [23]
  Plant response rating, Poinsettia, Wild: 40
[4]; [24]
  Plant response rating, Poinsettia, Wild: 50
[4]; [25]
  Plant response rating, Poinsettia, Wild: 35
[4]; [26]
  Plant response rating, Poinsettia, Wild: 30
[5]; [23]
  Plant response rating, Ryegrass, Italian: 70
[5]; [24]
  Plant response rating, Ryegrass, Italian: 80
[5]; [25]
  Plant response rating, Ryegrass, Italian: 40
[5]; [26]
  Plant response rating, Ryegrass, Italian: 50
Corn (Zea mays); [23]
  Plant response rating, Corn: 0
Corn (Zea mays); [24]
  Plant response rating, Corn: 0
Corn (Zea mays); [25]
  Plant response rating, Corn: 0
Corn (Zea mays); [26]
  Plant response rating, Corn: 0
[9]; [24]
  Plant response rating, Sandbur: 40
[9]; [25]
  Plant response rating, Sandbur: 20
[9]; [26]
  Plant response rating, Sandbur: 30
Kochia (Kochia scoparia); [23]
  Plant response rating, Kochia: 60
Kochia (Kochia scoparia); [24]
  Plant response rating, Kochia: 70
Kochia (Kochia scoparia); [25]
  Plant response rating, Kochia: 55
Kochia (Kochia scoparia); [26]
  Plant response rating, Kochia: 50
[10]; [24]
  Plant response rating, Waterhemp: 75
[10]; [25]
  Plant response rating, Waterhemp: 65
[10]; [26]
  Plant response rating, Waterhemp: 45

Source: US10597388B2, “Pyridazinone herbicides” (FMC CORPORATION, priority 2014, dated 2020)
